Structures can show the parent of a compound that is named as a salt.
Tests used:
[1] = test system: L6-myotubes; assay: Glucose uptake in differentiated L6-myotubes (3H-2-deoxyglucose), compared to isoproterenol; type: cell-based; details: agonist 1×10^−5 M, 50 nM 3H-2-deoxyglucose
In short: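 Serum-starved differentiated L6 myotubes stimulated with agonist at 1×10^−5 M for 1 h 40 min, re-dosed in glucose-free medium for 20 min, then given 50 nM ^3H-2-deoxyglucose for 10 min. Uptake read by β-counting of NaOH lysates; activity expressed relative to isoproterenol.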

[2] = test system: L6-myotubes; assay: Measurement of intracellular cAMP levels in differentiated L6 cells (alpha screen cAMP kit), compared to isoproterenol; type: cell-based; details: agonist 1×10^−5 M, 15 min; for Emax at 10 µM: Rattus norvegicus, L6, 0.25 h, read-out: Biological example 2: intracellular cAMP levels, activity compared to that of isoproterenol
In short: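 L6 myoblasts were differentiated into myotubes over 7 days in 2% FBS, then serum-starved overnight. Agonist at 1×10^−5 M final was applied for 15 min in HBSS with 1% BSA, 5 mM HEPES and 1 mM IBMX, pH 7.4. After ethanol extraction and lysis, cAMP was quantified by AlphaScreen, with activity expressed relative to isoproterenol.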

Row | SMILES | Biological example 1: glucose uptake, activity compared to that of isoproterenol [1] | Emax at 10 µM [2] [%] | Biological example 2: intracellular cAMP levels, activity compared to that of isoproterenol [2]
1 | CC(C)(C[C@H]1CC[C@H](NC(=O)OC(C)(C)C)CC1)NC[C@H](O)c1cccc(F)c1 [Example 153, tert-Butyl ((1R,4r)-4-(2-(((R)-2-(3-fluorophenyl)-2-hydroxyethyl)amino)-2-methylpropyl)cyclohexyl)carbamate] | + + + | 25 to 50 | 
2 | CC(C)(C[C@H]1CC[C@H](NC(=O)C(C)(C)C)CC1)NC[C@H](O)c1cccc(F)c1.Cl [Example 154, N-((1R,4r)-4-(2-(((R)-2-(3-Fluorophenyl)-2-hydroxyethyl)amino)-2-methylpropyl)cyclohexyl)pivalamide hydrochloride] | + + + | 25 to 50 | 
3 | CC(C)(C[C@H]1CC[C@H](NC(=O)C2CCC2)CC1)NC[C@H](O)c1cccc(F)c1.Cl [Example 155, N-((1R,4r)-4-(2-(((R)-2-(3-Fluorophenyl)-2-hydroxyethyl)amino)-2-methylpropyl)cyclohexyl)cyclobutanecarboxamide hydrochloride] | + + + |  | + +
4 | CC(C)(C[C@H]1CC[C@H](NC(=O)C2CC2)CC1)NC[C@H](O)c1cccc(F)c1.Cl [Example 156, N-((1R,4r)-4-(2-(((R)-2-(3-Fluorophenyl)-2-hydroxyethyl)amino)-2-methylpropyl)cyclohexyl)cyclopropanecarboxamide hydrochloride] | + + + |  | + + +
5 | CC(C)(C[C@H]1CC[C@H](NC(=O)C(F)(F)F)CC1)NC[C@H](O)c1cccc(F)c1.Cl [Example 157, 2,2,2-Trifluoro-N-((1R,4r)-4-(2-(((R)-2-(3-fluorophenyl)-2-hydroxyethyl)-amino)-2-methylpropyl)cyclohexyl)acetamide hydrochloride] | + + + | 25 to 50 | 
6 | CN(C)C(=O)N[C@H]1CC[C@H](CC(C)(C)NC[C@H](O)c2cccc(F)c2)CC1.Cl [Example 158, 3-((1R,4r)-4-(2-(((R)-2-(3-Fluorophenyl)-2-hydroxyethyl)amino)-2-methyl-propyl)cyclohexyl)-1,1-dimethylurea hydrochloride] | + + + |  | + + +
7 | CCCS(=O)(=O)N[C@H]1CC[C@H](CC(C)(C)NC[C@H](O)c2cccc(F)c2)CC1 [Example 159, N-((1R,4r)-4-(2-(((R)-2-(3-Fluorophenyl)-2-hydroxyethyl)amino)-2-methylpropyl)cyclohexyl)propane-1-sulfonamide hydrochloride] | + + + | 25 to 50 | 
8 | CC(C)(C[C@H]1CC[C@H](NS(=O)(=O)C(F)(F)F)CC1)NC[C@H](O)c1cccc(F)c1 [Example 160, 1,1,1-Trifluoro-N-((1R,4r)-4-(2-(((R)-2-(3-fluorophenyl)-2-hydroxyethyl)-amino)-2-methylpropyl)cyclohexyl)methanesulfonamide hydrochloride] | + + + | < 25 | 
9 | CC(C)(C[C@H]1CC[C@H](NS(=O)(=O)C2CC2)CC1)NC[C@H](O)c1cccc(F)c1 [Example 161, N-((1R,4r)-4-(2-(((R)-2-(3-Fluorophenyl)-2-hydroxyethyl)amino)-2-methypropyl)cyclohexyl)cyclopropanesulfonamide hydrochloride] | + + | < 25 | 
10 | CC(C)(C[C@H]1CC[C@@H](NC(=O)OC(C)(C)C)CC1)NC[C@H](O)c1cccc(F)c1 [Example 162, tert-Butyl ((1S,4s)-4-(2-(((R)-2-(3-fluorophenyl)-2-hydroxyethyl)amino)-2-methylpropyl)cyclohexyl)carbamate] | + + + | < 25 | 
11 | CC(C)(C[C@H]1CC[C@@H](N)CC1)NC[C@H](O)c1cccc(F)c1 [Example 163, (R)-2-((1-((1s,4S)-4-Aminocyclohexyl)-2-methylpropan-2-yl)amino)-1-(3-fluorophenyl)ethan-1-ol] | + + + | < 25 | 
12 | CC(=O)N[C@H]1CC[C@@H](CC(C)(C)NC[C@H](O)c2cccc(F)c2)CC1 [Example 164, N-((1S,4s)-4-(2-(((R)-2-(3-Fluorophenyl)-2-hydroxyethyl)amino)-2-methylpropyl)cyclohexyl)acetamide] | + + + | < 25 | 
13 | CC(C)(C[C@H]1CC[C@@H](NC(=O)C(C)(C)C)CC1)NC[C@H](O)c1cccc(F)c1 [Example 165, N-((1S,4s)-4-(2-(((R)-2-(3-Fluorophenyl)-2-hydroxyethyl)amino)-2-methylpropyl)cyclohexyl)pivalamide hydrochloride] | + + + | < 25 | 
14 | CC(C)(C[C@H]1CC[C@@H](NC(=O)C2CC2)CC1)NC[C@H](O)c1cccc(F)c1 [Example 166, N-((1S,4s)-4-(2-(((R)-2-(3-Fluorophenyl)-2-hydroxyethyl)amino)-2-methylpropyl)cyclohexyl)cyclopropanecarboxamide hydrochloride] | + + + | < 25 | 
15 | CC(C)(C[C@H]1CC[C@@H](NC(=O)C2CCC2)CC1)NC[C@H](O)c1cccc(F)c1 [Example 167, N-((1S,4s)-4-(2-(((R)-2-(3-Fluorophenyl)-2-hydroxyethyl)amino)-2-methylpropyl)cyclohexyl)cyclobutanecarboxamide hydrochloride] | + + | < 25 | 
16 | CC(C)(C[C@H]1CC[C@@H](NC(=O)C(F)(F)F)CC1)NC[C@H](O)c1cccc(F)c1 [Example 168, 2,2,2-Trifluoro-N-((1S,4s)-4-(2-(((R)-2-(3-Fluorophenyl)-2-hydroxyethyl)-amino)-2-methylpropyl)cyclohexyl)acetamide hydrochloride] | + + + | < 25 | 
17 | CN(C)C(=O)N[C@H]1CC[C@@H](CC(C)(C)NC[C@H](O)c2cccc(F)c2)CC1 [Example 169, 3-((1S,4s)-4-(2-(((R)-2-(3-Fluorophenyl)-2-hydroxyethyl)amino)-2-methylpropyl)cyclohexyl)-1,1-dimethylurea hydrochloride] | + + + | 25 to 50 | 
18 | CC(C)(C[C@H]1CC[C@@H](NS(C)(=O)=O)CC1)NC[C@H](O)c1cccc(F)c1 [Example 170, N-((1S,4s)-4-(2-(((R)-2-(3-Fluorophenyl)-2-hydroxyethyl)amino)-2-methylpropyl)cyclohexyl)methanesulfonamide hydrochloride] | + + + | < 25 | 
19 | CCCS(=O)(=O)N[C@H]1CC[C@@H](CC(C)(C)NC[C@H](O)c2cccc(F)c2)CC1 [Example 171, N-((1S,4s)-4-(2-(((R)-2-(3-Fluorophenyl)-2-hydroxyethyl)amino)-2-methylpropyl)cyclohexyl)propane-1-sulfonamide hydrochloride] | + + + | < 25 | 
20 | CC(C)(C[C@H]1CC[C@@H](NS(=O)(=O)C(F)(F)F)CC1)NC[C@H](O)c1cccc(F)c1 [Example 172, 1,1,1-Trifluoro-N-((1S,4s)-4-(2-(((R)-2-(3-fluorophenyl)-2-hydroxyethyl)-amino)-2-methylpropyl)cyclohexyl)methanesulfonamide hydrochloride] | + + | < 25 | 
21 | CC(C)(C[C@H]1CC[C@@H](NC(=O)OC(C)(C)C)CC1)NC[C@H](O)c1cncc(F)c1 [Example 174, tert-Butyl ((1S,4s)-4-(2-(((R)-2-(5-fluoropyridin-3-yl)-2-hydroxyethyl)-amino)-2-methylpropyl)cyclohexyl)carbamate] | + + + | < 25 | 
22 | CC(C)(C[C@H]1CC[C@@H](N)CC1)NC[C@H](O)c1cncc(F)c1 [Example 175, (R)-2-((1-((1s,4S)-4-Aminocyclohexyl)-2-methylpropan-2-yl)amino)-1-(5-fluoropyridin-3-yl)ethan-1-ol] | + + | < 25 | 
23 | CC(=O)N[C@H]1CC[C@@H](CC(C)(C)NC[C@H](O)c2cncc(F)c2)CC1 [Example 176, N-((1S,4s)-4-(2-(((R)-2-(5-Fluoropyridin-3-yl)-2-hydroxyethyl)amino)-2-methylpropyl)cyclohexyl)acetamide] | + + + | < 25 | 
24 | CC(C)(C[C@H]1CC[C@@H](NS(C)(=O)=O)CC1)NC[C@H](O)c1cncc(F)c1 [Example 177, N-((1S,4s)-4-(2-(((R)-2-(5-Fluoropyridin-3-yl)-2-hydroxyethyl)amino)-2-methylpropyl)cyclohexyl)methanesulfonamide] | + + + | < 25 | 
25 | CC(=O)N(C)[C@H]1CC[C@H](CC(C)(C)NC[C@H](O)c2cccc(F)c2)CC1.Cl [Example 178, N-((1R,4r)-4-(2-(((R)-2-(3-Fluorophenyl)-2-hydroxyethyl)amino)-2-methylpropyl)cyclohexyl)-N-methylacetamide hydrochloride] | + + + | < 25 | 
